Results from US20140220058A1, “VACCINE COMPOSITION FOR TRANSDERMAL OR MUCOSAL ADMINISTRATION” (NITTO DENKO CORPORATION, priority 2013, published 2014).
“Also recorded” adds a separate entry of the source.

Key:
[1] = test system: IFN-γ producing cells; experiment: Promotion of immunity induction using a mucosal vaccine (conclusion from Tables 4, 5 and 6); type: in vivo, mouse; conditions: acid as component of sublingual liquid formulations
[2] = test system: IFN-γ producing cells; experiment: Promotion of immunity induction via transdermal immunization (conclusion from Tables 1, 2, 3, 8 and 10); type: in vivo, mouse; conditions: acid as component of tape, liquid or cream formulations

Row | Structure (SMILES) | promotion of immunity induction using a mucosal vaccine (in words) [1] | promotion of immunity induction via transdermal immunization (in words) [2]
1 | O=C(O)CC(O)(CC(=O)O)C(=O)O [citric acid] | suitable; also recorded: particularly preferable | –
2 | CCCCCCCCCC(=O)O [decanoic acid] | – | suitable; also recorded: particularly preferable
3 | CC(C)CCCCCCCCCCCCCCC(=O)O [isostearic acid] | suitable; also recorded: particularly preferable | suitable; also recorded: preferable
4 | CC(O)C(=O)O (stereo not shown) [lactic acid] | suitable; also recorded: particularly preferable | suitable; also recorded: particularly preferable
5 | CCCCCCCCCCCC(=O)O [lauric acid] | – | suitable; also recorded: particularly preferable
6 | O=C(O)/C=C\C(=O)O [maleic acid] | suitable; also recorded: preferable | suitable; also recorded: preferable
7 | O=C(O)CC(O)C(=O)O (stereo not shown) [malic acid] | suitable | suitable; also recorded: preferable
8 | CS(=O)(=O)O [methanesulfonic acid] | – | suitable; also recorded: particularly preferable
9 | CCCCCCCCCCCCCC(=O)O [myristic acid] | suitable; also recorded: particularly preferable | suitable; also recorded: particularly preferable
10 | CCCCCCCC/C=C\CCCCCCCC(=O)O [oleic acid] | – | suitable; also recorded: preferable
11 | CCCCCCCCCCCCCCCC(=O)O [palmitic acid] | – | suitable; also recorded: particularly preferable
12 | O=C(O)c1ccccc1O [salicylic acid] | suitable | suitable; also recorded: particularly preferable
13 | CCCCCCCCCCCCCCCCCC(=O)O [stearic acid] | – | suitable; also recorded: particularly preferable
